From patent publication US20240067702A1, “LACTAM-MODIFIED P[…]” (DONGBAO PURPLE STAR (HANGZHOU) BIOPHARMACEUTICAL CO., LTD., priority 2020, published 2024) come the findings set out here.

*1 amine or outer side, *2 acyl side, *3 side chain or, on linkers, in order; H or OH if unused. Where a SMILES comes first, the peptide text is derived from it. Bridges are numbered along the chain shown (N, C = ends). Side-chain parts run from the residue outwards. [ ]: non-standard residue; d: D form. The star is where a group is joined. C20 diacid = O=C(O)CCCCCCCCCCCCCCCCCCC(=O)*; γGlu = O=C(O)[C@H](CCC(=O)[*:2])N[*:1]; AEEA = NCCOCCOCC(=O)O; Aib = CC(C)(N)C(=O)O

The nature of data set [1]: Pharmacokinetic evaluation in C57BL/6 mice. In kind it is in vivo. The note with it: mouse, plasma, 0.048 mg/kg. As for the experimental part:
To test the pharmacokinetics of compounds in C57BL/6 mice in vivo
The pharmacokinetic characteristics of the compounds in rodents after intravenous injection and subcutaneous injection were tested according to the standard protocol. In the experiment, the candidate compounds were formulated into clear solutions, and a single intravenous injection (IV, 0.048 mpk) and subcutaneous injection (SC, 0.048 mpk) were given to the mice. The vehicle for intravenous injection was PBS buffer (pH=7), and the vehicle for subcutaneous injection was citrate buffer (20 mM, pH=7). Whole blood was collected and prepared to obtain plasma. Drug concentration was analyzed by LC-MS/MS method, and pharmacokinetic parameters were calculated by Phoenix WinNonlin software.

Data set [2] can be described thus: Pharmacokinetic evaluation in cynomolgus monkeys. The note with it: cynomolgus monkey, plasma, 0.02 mg/kg, single SC 0.02 mpk. It counts as in vivo. On the procedure: To test the pharmacokinetics of compounds in cynomolgus monkeys in vivo
The pharmacokinetic characteristics of the compounds in mammals after intravenous injection and subcutaneous injection were tested according to the standard protocol. In the experiment, the candidate compounds were formulated into clear solutions, and a single subcutaneous injection (SC, 0.02 mpk) was given to the cynomolgus monkeys. The vehicle for subcutaneous injection was citrate buffer (20 mM, pH=7). Whole blood was collected and prepared to obtain plasma. Drug concentration was analyzed by LC-MS/MS method, and pharmacokinetic parameters were calculated by Phoenix WinNonlin software.

The nature of data set [3]: Plasma stability (PLS) test, human plasma. In kind it is in vitro ADME. The following applies: pH 7.4, 37° C., up to 120 min, read-out: PLS (H/M) T1/2, H.
For the next data set, the system named is human plasma albumin. The data set is described as follows: Plasma protein binding (PPB) test, human. In kind it is in vitro ADME. On the set-up: key: NA means the plasma-protein binding is too high, and no free drug can be detected under a normal concentration of plasma protein. The following applies: ultracentrifugation. As for the experimental part: (§1) To study the binding of the test compounds to human/mouse plasma albumin.
(§2) 1. Matrix preparation: On the day of the experiment, the plasma was thawed in cold water and centrifuged at 3220 rpm for 5 min to remove all blood clots. The pH of the obtained plasma was measured and adjusted to 7.4±0.1 using 1% phosphoric acid or 1N sodium hydroxide as needed.
(§3) 2. Dilution steps of the test compounds: The test compounds were dissolved in dimethyl sulfoxide (DMSO) to prepare stock solutions at concentrations of 10 mM and 2 mM, respectively. A 40 μM working solution was prepared by diluting 2 μL of the stock solution (2 mM) with 98 μL of DMSO. A 400 μM working solution of the control compound was prepared by diluting 10 μL of the stock solution with 240 μL of DMSO. The working solution of the compound (5 μL) was mixed with the blank matrix (995 μL) at a ratio of 1:200 to prepare the loading matrix.
3.1 An equal amount of 30 μL of the loading matrix (n=2) was transferred to the sample collection plate to prepare samples of time 0 (TO) for residue determination. The samples were immediately matched to the corresponding blank buffer in a final volume of 60 μL with a 1:1 volume ratio of plasma to buffer in each well. Then, 60 μL of 4% H3PO4 in H2O and 480 μL of stop solution containing an internal standard were then added to the TO samples of the test compounds. […]

The subject of the next data set is mouse plasma albumin. The data set is described as follows: Plasma protein binding (PPB) test, mouse. It counts as in vitro ADME. Also noted: key to PPB % unbound (H/M), M: NA means the plasma-protein binding is too high, and no free drug can be detected under a normal concentration of plasma protein. The note with it: ultracentrifugation. On the procedure: as §1, §2, §3
3.1 An equal amount of 30 μL of the loading matrix (n=2) was transferred to the sample collection plate to prepare samples of time 0 (TO) for residue determination. The samples were immediately matched to the corresponding blank buffer in a final volume of 60 μL with a 1:1 volume ratio of plasma to buffer in each well. Then, 60 μL of 4% H3PO4 in H2O and 480 μL of stop solution containing an internal standard were then added to the TO samples of the test compounds. They were then stored at 2-8° C. with other samples pending for further processing.
3.2 The remaining plasma samples were pre-incubated in a carbon dioxide incubator at 37±1° C. for 30 min. The prepared protein-free samples (F samples) and loading matrix samples (230 μL) were transferred to polycarbonate tubes (n=2) and ultracentrifuged at 37° C. and 155000×g (35000 rpm) for 4 hours.
3.3 To prepare T samples (test samples), an additional matrix-containing sample was transferred to a separate 96-well plate (sample incubation plate) and incubated at 37° C. for 4 hours.
3.4 After centrifugation, 30 μL of protein-free sample and 30 μL of T sample were transferred from the second layer of supernatant (below the upper layer) to a new sample collection plate. Each sample was mixed with the corresponding blank buffer or matrix in a final volume of 60 μL with a matrix:buffer volume ratio of 1:1. 60 μL of 4% H3PO4 aqueous solution and 480 μL of stop solution (containing internal standard) were added to all samples. The mixture was centrifuged at 4000 rpm for 20 min, and 100 μL of the supernatant of each sample was taken for LC-MS/MS analysis.

The nature of data set [4]: Kidney homogenate stability (BHS) test. The note with it: normal mouse kidney homogenate, 37° C.; read-out: BHS (T1/2 (min)). In kind it is in vitro ADME. As for the experimental part:
To study the stability of the test compounds in normal mouse kidney homogenate.
1. Before the experiment, the frozen kidney homogenate was thawed in a 37° C. water bath.
2. Test compounds: 10 mM stock solution was diluted with DMSO to prepare 1 mM intermediate solution;
3. test compounds: 1 mM intermediate solution was diluted with DMSO to prepare 50 μM dosing solution;
4. at each time point (0, 10, 30, 60, 120, 180, 240 min), 100 μL of 4% H3PO4 and 800 μL of stop solution were added to precipitate the protein, and mixed thoroughly.
5. The samples were centrifuged at 4000 rpm for 10 min, and 100 μL of supernatant was taken from each well to the plate. The samples were shaken at 800 rpm for approximately 10 min before submitting for LC-MS/MS test.

As a reminder, the clearance is a measure of how efficiently the substance is removed, as volume per time. By bioavailability is commonly meant dose-corrected exposure relative to a reference, in per cent. In general, Cmax refers to the maximum level reached in the sampled fluid or tissue. The term Tmax denotes the time at which the peak concentration occurs. With `CC[C@H](C)[C@H](NC(=O)[C@H](CC(C)C)NC(=O)[C@H](Cc1c[nH]c2ccccc12)NC(=O)[C@@H]1CCC(=O)NCCCC[C@H](NC(=O)[C@H](CCC(N)=O)NC(=O)[C@H](C)NC(=O)[C@H](CCCCNC(=O)COCCOCCNC(=O)COCCOCCNC(=O)CC[C@H](NC(=O)CCCCCCCCCCCCCCCCCCC(=O)O)C(=O)O)NC(=O)[C@H](CCCCN)NC(=O)[C@H](CC(=O)O)NC(=O)[C@H](CC(C)C)NC(=O)C(C)(C)NC(=O)[C@@H](NC(=O)[C@H](CO)NC(=O)[C@H](Cc2ccc(O)cc2)NC(=O)[C@H](CC(=O)O)NC(=O)[C@H](CO)NC(=O)[C@@H](NC(=O)[C@H](Cc2ccccc2)NC(=O)[C@@H](NC(=O)CNC(=O)[C@H](CCC(=O)O)NC(=O)C(C)(C)NC(=O)[C@@H](N)Cc2ccc(O)cc2)[C@@H](C)O)[C@@H](C)O)[C@@H](C)CC)C(=O)N[C@@H](C)C(=O)N[C@@H](Cc2ccccc2)C(=O)N[C@@H](C(C)C)C(=O)N1)C(=O)N[C@@H](C)C(=O)NCC(=O)NCC(=O)N1CCC[C@H]1C(=O)N[C@@H](CO)C(=O)N[C@@H](CO)C(=O)NCC(=O)N[C@@H](C)C(=O)N1CCC[C@H]1C(=O)N1CCC[C@H]1C(=O)N1CCC[C@H]1C(=O)N[C@@H](CO)C(N)=O` [WX-001] (H-Y[Aib]EGTFTSDYSI[Aib]LDKK([AEEA-AEEA-γGlu-C20 diacid])AQKAFVEWLIAGGPSSGAPPPS-NH2; lactam 20-24), the half-life in data set [1] (0.048 mpk IV/SC, read-out: Half-life T1/2 (converted)) is 15.5 h; in data set [2] (read-out: Half-life T1/2 (converted)) it was 80 h; in data set [4], 14 min. The same molecule had a clearance in data set [1] (IV 0.048 mpk) of 5.28 mL/h/kg. In addition, the AUC(0-t) in data set [1] (SC 0.048 mpk, read-out: SC Concentration Integral AUC0-72 h) was 1.55 µM·h; in data set [2] (read-out: SC Concentration Integral AUC0-240 h), 3.97 µM·h. The bioavailability in data set [1] (subcutaneous, SC 0.048 mpk vs IV 0.048 mpk, read-out: Bioavailability F) turned out to be 85.5%. Besides, in data set [2], the concentration peaked (Cmax) at 30 nM. Further, the time to peak (Tmax) in data set [2] was determined as 21 h. The half-life at 2 μM in data set [3] was over 4.82 h. The “PPB % unbound (H/M), H” value with human plasma albumin is reported as “NA/NA”. For the same molecule, the “PPB % unbound (H/M), M” value with mouse plasma albumin is given as “NA/NA”.
